pIC50: −log10 of the molar value.
What follows are molecules tested against NaV 1.8 channel (Homo sapiens, UniProt Q9Y5Y9) (assay: Activity against NaV 1.8 channel (optical membrane potential assay)).
Format: cell-based
Outline: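 Cells expressing the NaV of interest loaded with CC2-DMPE (30 min, room temperature) then DiSBAC2(3) with ABSCl and veratridine; compound incubated 20–30 min. Depolarization triggered by sodium add-back and read on VIPR as 460/580 nm FRET ratio (Rf/Ri), normalized to tetracaine and untreated controls.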

NaV 1.8 channel, sequence (Q9Y5Y9 whole entry): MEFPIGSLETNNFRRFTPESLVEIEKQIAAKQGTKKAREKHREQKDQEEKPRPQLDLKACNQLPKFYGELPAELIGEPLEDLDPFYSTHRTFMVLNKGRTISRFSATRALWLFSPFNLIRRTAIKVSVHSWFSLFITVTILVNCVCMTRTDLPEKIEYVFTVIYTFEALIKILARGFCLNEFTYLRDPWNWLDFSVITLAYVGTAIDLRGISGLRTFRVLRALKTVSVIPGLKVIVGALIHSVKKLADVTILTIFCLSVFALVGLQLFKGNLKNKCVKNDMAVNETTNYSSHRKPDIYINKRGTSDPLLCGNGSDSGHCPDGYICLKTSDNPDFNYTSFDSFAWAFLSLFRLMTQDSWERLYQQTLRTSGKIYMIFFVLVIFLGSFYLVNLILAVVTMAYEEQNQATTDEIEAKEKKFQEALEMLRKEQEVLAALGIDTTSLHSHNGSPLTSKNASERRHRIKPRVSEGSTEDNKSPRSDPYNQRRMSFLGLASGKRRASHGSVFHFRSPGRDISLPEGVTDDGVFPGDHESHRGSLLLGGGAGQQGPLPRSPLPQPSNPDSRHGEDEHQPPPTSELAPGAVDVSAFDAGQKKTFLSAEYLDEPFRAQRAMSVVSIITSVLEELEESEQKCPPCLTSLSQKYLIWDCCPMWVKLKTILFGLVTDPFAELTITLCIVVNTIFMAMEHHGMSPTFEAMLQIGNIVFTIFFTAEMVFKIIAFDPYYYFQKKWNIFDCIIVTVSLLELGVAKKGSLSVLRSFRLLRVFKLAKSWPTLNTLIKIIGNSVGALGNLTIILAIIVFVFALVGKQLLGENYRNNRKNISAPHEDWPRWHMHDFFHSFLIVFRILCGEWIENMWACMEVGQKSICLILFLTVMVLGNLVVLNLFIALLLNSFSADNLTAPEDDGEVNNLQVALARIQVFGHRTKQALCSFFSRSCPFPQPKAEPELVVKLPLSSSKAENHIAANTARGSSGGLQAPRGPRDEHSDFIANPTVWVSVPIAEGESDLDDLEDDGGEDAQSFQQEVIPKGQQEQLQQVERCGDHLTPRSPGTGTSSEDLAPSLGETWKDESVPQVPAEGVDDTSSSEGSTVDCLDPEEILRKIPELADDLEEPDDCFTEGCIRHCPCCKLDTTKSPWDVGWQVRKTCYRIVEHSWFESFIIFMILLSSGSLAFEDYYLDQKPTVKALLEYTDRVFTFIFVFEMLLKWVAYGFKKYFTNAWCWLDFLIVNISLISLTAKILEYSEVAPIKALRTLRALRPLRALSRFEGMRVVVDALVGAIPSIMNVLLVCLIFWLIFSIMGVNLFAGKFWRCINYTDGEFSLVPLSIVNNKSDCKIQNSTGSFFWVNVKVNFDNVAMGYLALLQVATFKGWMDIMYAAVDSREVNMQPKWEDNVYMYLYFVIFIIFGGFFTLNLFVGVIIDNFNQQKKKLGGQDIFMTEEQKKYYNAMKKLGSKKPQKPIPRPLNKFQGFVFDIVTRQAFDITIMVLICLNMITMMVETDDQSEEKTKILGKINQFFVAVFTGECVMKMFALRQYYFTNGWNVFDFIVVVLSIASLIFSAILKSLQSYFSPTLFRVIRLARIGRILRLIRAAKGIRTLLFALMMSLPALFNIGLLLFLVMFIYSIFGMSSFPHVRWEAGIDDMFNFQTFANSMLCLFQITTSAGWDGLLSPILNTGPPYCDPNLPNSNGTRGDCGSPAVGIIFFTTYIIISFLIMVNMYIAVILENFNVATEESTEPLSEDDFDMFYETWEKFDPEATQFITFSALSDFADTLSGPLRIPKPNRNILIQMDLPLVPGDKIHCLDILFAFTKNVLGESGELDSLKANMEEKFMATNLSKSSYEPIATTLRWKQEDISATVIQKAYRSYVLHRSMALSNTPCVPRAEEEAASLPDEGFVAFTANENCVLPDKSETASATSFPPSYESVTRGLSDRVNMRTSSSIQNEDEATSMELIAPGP

Row | Compound | pIC50
1 | CC[C@H](O)C(=O)NC1CCN(c2nc(-c3ccccc3O)nc3cc(C)ccc23)CC1 [Example 244, (2S)-2-Hydroxy-N-(1-(2-(2-hydroxyphenyl)-7-methylquinazolin-4-yl)piperidin-4-yl)butanamide] | < 5.00
2 | Cc1ccc2c(N3CC[C@@H](CNC(=O)OC(C)C)C3)nc(-c3ccccc3O)nc2c1 [Example 368, Isopropyl ((S)-1-(2-(2-hydroxyphenyl)-7-methylquinazolin-4-yl)pyrrolidin-3-yl)methylcarbamate] | 5.00 to 5.70
3 | Cc1ccc2c(N3CC(NC(=O)OCC4CCOC4)C3)nc(-c3ccccc3O)nc2c1 (centres unmarked) [Example 416] | < 5.00
4 | Cc1ccc2c(N3CCC[C@H](NC(=O)O[C@H]4CCOC4)C3)nc(-c3ccccc3O)nc2c1 [Example 204, (S)-Tetrahydrofuran-3-yl (S)-1-(2-(2-hydroxyphenyl)-7-methylquinazolin-4-yl)piperidin-3-ylcarbamate] | < 5.00
5 | Cc1ccc2c(N3CCN(C(=O)[C@H](O)CC(C)C)CC3)nc(-c3c(O)cccc3F)nc2c1 [Example 147, (R)-1-(4-(2-(2-Fluoro-6-hydroxyphenyl)-7-methylquinazolin-4-yl)piperazin-1-yl)-2-hydroxy-4-methylpentan-1-one] | 5.00 to 5.70
6 | CCCC(O)C(=O)NC1CCN(c2nc(-c3ccccc3O)nc3cc(C)ccc23)CC1 (centres unmarked) [Example 247, 2-Hydroxy-N-(1-(2-(2-hydroxyphenyl)-7-methylquinazolin-4-yl)piperidin-4-yl)pentanamide] | < 5.00
7 | CC[C@@H](O)C(=O)NC1CCN(c2nc(-c3ccccc3O)nc3cc(C)ccc23)CC1 [Example 243, (2R)-2-Hydroxy-N-(1-(2-(2-hydroxyphenyl)-7-methylquinazolin-4-yl)piperidin-4-yl)butanamide] | < 5.00
8 | Cc1ccc2c(N3CCC(NC(=O)OCc4cccc5c4OCO5)CC3)nc(-c3ccccc3O)nc2c1 [Example 229, (Benzo[d][1,3]dioxol-7-yl)methyl 1-(2-(2-hydroxyphenyl)-7-methylquinazolin-4-yl)piperidin-4-ylcarbamate] | < 5.00
9 | Cc1ccc2c(N3CCC(NC(=O)OCc4ccncc4)CC3)nc(-c3ccccc3O)nc2c1 [Example 228, (Pyridin-4-yl)methyl 1-(2-(2-hydroxyphenyl)-7-methylquinazolin-4-yl)piperidin-4-ylcarbamate] | < 5.00
10 | CCC(O)(CC)C(=O)NC1CCN(c2nc(-c3ccccc3O)nc3cc(C)ccc23)CC1 [Example 234, 2-Ethyl-2-hydroxy-N-(1-(2-(2-hydroxyphenyl)-7-methylquinazolin-4-yl)piperidin-4-yl)butanamide] | < 5.00
11 | CCCC(O)C(=O)NC1CCN(c2nc(-c3ccccc3O)nc3ccccc23)CC1 (centres unmarked) [Example 241, 2-Hydroxy-N-(1-(2-(2-hydroxyphenyl)quinazolin-4-yl)piperidin-4-yl)pentanamide] | < 5.00
12 | Cc1ccc2c(N3CC[C@@H](CNC(=O)OC(C)C)C3)nc(-c3c(O)cccc3F)nc2c1 [Example 371, Isopropyl ((S)-1-(2-(2-fluoro-6-hydroxyphenyl)-7-methylquinazolin-4-yl)pyrrolidin-3-yl)methylcarbamate] | > 5.70
13 | Cc1ccc2c(N3CCN(C(=O)OCC4CCOC4)CC3)nc(-c3c(O)cccc3F)nc2c1 (centres unmarked) [Example 162, (Tetrahydrofuran-3-yl)methyl 4-(2-(2-fluoro-6-hydroxyphenyl)-7-methylquinazolin-4-yl)piperazine-1-carboxylate] | 5.00 to 5.70
14 | Cc1ccc2c(N3CC[C@@H](CNC(=O)OCC(C)(C)C)C3)nc(-c3ccccc3O)nc2c1 [Example 369, Neopentyl ((S)-1-(2-(2-hydroxyphenyl)-7-methylquinazolin-4-yl)pyrrolidin-3-yl)methylcarbamate] | > 5.70
15 | C[C@H](O)CC(=O)N1CCN(c2nc(-c3ccccc3O)nc3ccccc23)CC1 [Example 109, (S)-3-Hydroxy-1-(4-(2-(2-hydroxyphenyl)quinazolin-4-yl)piperazin-1-yl)butan-1-one] | 5.00 to 5.70
16 | Cc1ccc2c(N3CCN(C(=O)OCc4ccncc4)CC3)nc(-c3c(O)cccc3F)nc2c1 [Example 114, (Pyridin-4-yl)methyl 4-(2-(2-fluoro-6-hydroxyphenyl)-7-methylquinazolin-4-yl)piperazine-1-carboxylate] | 5.00 to 5.70
17 | CCC(C)(O)C(=O)N1CCN(c2nc(-c3ccccc3O)nc3ccccc23)CC1 (centres unmarked) [Example 129, 2-Hydroxy-1-(4-(2-(2-hydroxyphenyl)quinazolin-4-yl)piperazin-1-yl)-2-methylbutan-1-one] | < 5.00
18 | Cc1ccc2c(N3CCN(C(=O)[C@@H](O)Cc4cnc[nH]4)CC3)nc(-c3ccccc3O)nc2c1 [Example 141, (S)-2-Hydroxy-1-(4-(2-(2-hydroxyphenyl)-7-methylquinazolin-4-yl)piperazin-1-yl)-3-(1H-imidazol-5-yl)propan-1-one] | < 5.00
19 | Cc1ccc2c(N3CC[C@@H](CNC(=O)O[C@H]4CCOC4)C3)nc(-c3ccccc3O)nc2c1 [Example 305, (S)-Tetrahydrofuran-3-yl ((S)-1-(2-(2-hydroxyphenyl)-7-methylquinazolin-4-yl)pyrrolidin-3-yl)methylcarbamate] | 5.00 to 5.70

Row | Compound | pIC50
20 | Cc1ccc2c(N3CC[C@@H](NC(=O)OCC4CCCCO4)C3)nc(-c3ccccc3O)nc2c1 (stereo partly drawn) [Example 314, (Tetrahydro-2H-pyran-2-yl)methyl (R)-1-(2-(2-hydroxyphenyl)-7-methylquinazolin-4-yl)pyrrolidin-3-ylcarbamate] | 5.00 to 5.70
21 | CCC(C)(O)C(=O)N1CCN(c2nc(-c3ccccc3O)nc3cc(C)ccc23)CC1 (centres unmarked) [Example 165, 2-Hydroxy-1-(4-(2-(2-hydroxyphenyl)-7-methylquinazolin-4-yl)piperazin-1-yl)-2-methylbutan-1-one] | 5.00 to 5.70
22 | Cc1ccc2c(N3CCN(C(=O)C(O)c4ccc(F)cc4)CC3)nc(-c3c(O)cccc3F)nc2c1 (centres unmarked) [Example 167, 1-(4-(2-(2-Fluoro-6-hydroxyphenyl)-7-methylquinazolin-4-yl)piperazin-1-yl)-2-(4-fluorophenyl)-2-hydroxyethanone] | < 5.00
23 | Cc1ccc2c(N3CCC(NC(=O)O[C@@H]4CO[C@H]5OCC[C@H]54)CC3)nc(-c3ccccc3O)nc2c1 [Example 280] | 5.00 to 5.70
24 | CCOC(=O)NC[C@@H]1CCN(c2nc(-c3ccccc3O)nc3cc(C)ccc23)C1 [Example 364, Ethyl ((S)-1-(2-(2-hydroxyphenyl)-7-methylquinazolin-4-yl)pyrrolidin-3-yl)methylcarbamate] | > 5.70
25 | Cc1ccc2c(N3CCC[C@@H](NC(=O)OCC(C)C)C3)nc(-c3ccccc3O)nc2c1 [Example 282] | > 5.70
26 | Cc1ccc2c(N3CCN(C(=O)[C@H](O)CC(=O)O)CC3)nc(-c3ccccc3O)nc2c1 [Example 145, (R)-3-Hydroxy-4-(4-(2-(2-hydroxyphenyl)-7-methylquinazolin-4-yl)piperazin-1-yl)-4-oxobutanoic acid] | < 5.00
27 | COCCOC(=O)NC[C@@H]1CCN(c2nc(-c3ccccc3O)nc3cc(C)ccc23)C1 [Example 366, 2-Methoxyethyl ((S)-1-(2-(2-hydroxyphenyl)-7-methylquinazolin-4-yl)pyrrolidin-3-yl)methylcarbamate] | 5.00 to 5.70
28 | CC(C)(C)[C@H](O)C(=O)N1CCN(c2nc(-c3ccccc3O)nc3ccc(F)cc23)CC1 [Example 139, (S)-1-(4-(6-Fluoro-2-(2-hydroxyphenyl)quinazolin-4-yl)piperazin-1-yl)-2-hydroxy-3,3-dimethylbutan-1-one] | 5.00 to 5.70
29 | Cc1ccc2c(N3CC[C@@H](NC(=O)CCN4CCCCC4)C3)nc(-c3ccccc3O)nc2c1 [Example 324] | < 5.00
30 | Cc1ccc2c(N3CC[C@@H](NC(=O)O[C@H]4CCOC4)C3)nc(-c3ccccc3O)nc2c1 [Example 301, (S)-Tetrahydrofuran-3-yl (R)-1-(2-(2-hydroxyphenyl)-7-methylquinazolin-4-yl)pyrrolidin-3-ylcarbamate] | 5.00 to 5.70
31 | Cc1ccc2c(N3CCC(NC(=O)COC4CC(C)CCC4C(C)C)CC3)nc(-c3ccccc3O)nc2c1 (centres unmarked) [Example 222, 2-(2-Isopropyl-5-methylcyclohexyloxy)-N-(1-(2-(2-hydroxyphenyl)-7-methylquinazolin-4-yl)piperidin-4-yl)acetamide] | < 5.00
32 | Cc1ccc2c(N3CC[C@@H](NC(=O)OCc4ccccc4)C3)nc(-c3ccccc3O)nc2c1 [Example 309, (R)-{1-[2-(2-Hydroxy-phenyl)-7-methyl-quinazolin-4-yl]-pyrrolidin-3-yl}-carbamic acid benzyl ester] | > 5.70
33 | CC[C@@H](O)C(=O)NC1CCN(c2nc(-c3ccccc3O)nc3ccccc23)CC1 [Example 236, (2R)-2-Hydroxy-N-(1-(2-(2-hydroxyphenyl)quinazolin-4-yl)piperidin-4-yl)butanamide] | < 5.00
34 | O=C(N[C@@H]1CCN(c2nc(-c3ccccc3O)nc3ccc(F)cc23)C1)c1cccnc1 [Example 349, N—((R)-1-(6-Fluoro-2-(2-hydroxyphenyl)quinazolin-4-yl)pyrrolidin-3-yl)nicotinamide] | < 5.00
35 | Cc1ccc2c(N3CC[C@@H](NC(=O)OCc4cccc5c4OCO5)C3)nc(-c3ccccc3O)nc2c1 [Example 321, (Benzo[d][1,3]dioxol-7-yl)methyl (R)-1-(2-(2-hydroxyphenyl)-7-methylquinazolin-4-yl)pyrrolidin-3-ylcarbamate] | < 5.00
36 | Cc1ccc2c(N3CCC(NC(=O)[C@H](O)CC(C)C)CC3)nc(-c3ccccc3O)nc2c1 [Example 267] | < 5.00
37 | CC(C)(C)C[C@@H](O)C(=O)N1CCN(c2nc(-c3ccccc3O)nc3ccc(F)cc23)CC1 [Example 111, (R)-1-(4-(6-Fluoro-2-(2-hydroxyphenyl)quinazolin-4-yl)piperazin-1-yl)-2-hydroxy-4,4-dimethylpentan-1-one] | < 5.00
38 | Cc1ccc2c(N3CCN(C(=O)[C@H](O)CC(C)(C)C)CC3)nc(-c3ccccc3O)nc2c1 [Example 101, (R)-2-Hydroxy-1-(4-(2-(2-hydroxyphenyl)-7-methylquinazolin-4-yl)piperazin-1-yl)-4,4-dimethylpentan-1-one] | > 5.70

Reference: patent US7928107B2, “Quinazolines useful as modulators of ion channels” (Vertex Pharmaceuticals Incorporated, priority 2004, dated 2011)
